Data from patent publication US6673937B2, “Syntheses and methods of use of new antimitotic agents” (The University of Pittsburgh, priority 2000, dated 2004).
Like-named read-outs stand apart in the source and are kept apart here.

Key:
60 cell line panel = details: read-out: average GI 50; cited from earlier work
Trx-1/TrxR [1] = target: T1, Trx-1/TrxR (Homo sapiens, UniProt P10599+Q16881); details: read-out: IC 50 as Trx-1/TrxR inhibitor; cited from earlier work
T1 sequence (P10599 1-105): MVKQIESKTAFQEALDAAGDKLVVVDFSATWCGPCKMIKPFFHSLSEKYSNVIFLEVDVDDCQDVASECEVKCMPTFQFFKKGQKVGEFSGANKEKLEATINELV
T1 sequence (Q16881 151-649 limits assumed): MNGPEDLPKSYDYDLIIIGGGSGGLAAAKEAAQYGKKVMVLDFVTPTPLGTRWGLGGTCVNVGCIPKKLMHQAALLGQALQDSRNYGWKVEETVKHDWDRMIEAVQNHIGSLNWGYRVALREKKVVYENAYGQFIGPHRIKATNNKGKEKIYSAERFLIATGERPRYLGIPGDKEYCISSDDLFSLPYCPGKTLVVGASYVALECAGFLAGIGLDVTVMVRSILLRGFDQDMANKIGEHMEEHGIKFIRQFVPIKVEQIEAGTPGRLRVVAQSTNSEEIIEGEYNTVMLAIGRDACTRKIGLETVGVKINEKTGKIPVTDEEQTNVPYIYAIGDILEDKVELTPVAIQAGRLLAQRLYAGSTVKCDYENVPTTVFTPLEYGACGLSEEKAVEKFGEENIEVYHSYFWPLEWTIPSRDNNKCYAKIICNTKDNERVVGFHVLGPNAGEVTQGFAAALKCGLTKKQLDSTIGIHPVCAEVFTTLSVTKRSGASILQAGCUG

garden cress = details: cited from earlier work
[2] = target: thioredoxin reductases (TrxR); details: read-out: K; (thioredoxin reductase inhibition); cited from earlier work
Trx-1/TrxR [3] = target: T2, Trx-1/TrxR (Homo sapiens, UniProt P10599+Q16881); assay: Trx-1/TrxR-dependent insulin reducing assay; type: biochemical; details: calculated from 5 concentrations (0.1 to 50 μM)
T2 construct: Thioredoxin reductase was purified from human placenta as previously described; made in house
T2 sequence (P10599 1-105): T1 sequence (P10599 1-105)
T2 sequence (Q16881 1-499 isoform Q16881-5): T1 sequence (Q16881 151-649 limits assumed)
Protocol: Thioredoxin reductase was purified from human placenta as previously described (Oblong, J.E.; Gasdaska, P.Y.; Sherrill, K.; Powis,G. Biochemistry 1993, 32, 7271) and recombinant human Trx-1 was prepared as previously described (Gasdaska, P.Y.; Oblong, J.E.; Cotgreave, I.A.; Powis,G. Biochem.Biophys.Acta 1994 ,1218 ,292). TrxR and Trx-1/TrxR activities were measured spectrophotometrically using previously published microtiter plate colorimetric assays, based on the increase in absorbance at 405 nm which occurs as dithionitrobenzoic acid (DTNB) is reduced by the enzyme-mediated transfer of reducing equivalents from NADPH (Gasdaska et al., Biochem.Biophys.Acta 1994 ,1218,292). Trx-1/TrxR-dependent insulin reducing activity was measured in an incubation with a final volume of 60 μL containing 100 mM HEPES buffer, pH 7.2,5 mM EDTA (HE buffer),1 mM NADPH, […],0.8 μM Trx-1 and 2.5 mg/mL bovine insulin. Incubations were for 30 min at 37 ° C. in flat-bottom 96-well microtiter plates. The reaction was stopped by the addition of 100 μL of 6 M guanidine-HC1, 50 mM Tris, pH 8.0, and 10 mM DTNB, and the absorbance measured to 405 nm. TrxR activity was measured in a final incubation volume of 60 μL containing HE buffer, 10 mM DTNB, 1.0 μM TrxR and 1 mM NADPH. Compounds were diluted in HE buffer and added to the wells as 20 μL aliquots, and TrxR was then added,also as 20 μL aliquots in HE buffer. To start the reaction NADPH and DTNB were added as a 20 μL aliquot in HE buffer and the plate was moved to the plate reader which had been preheated to 37 ° C. The optical density at 405 nm was measured every 10 s and initial reaction rates were measured.

[4] = system: mouse embryonic fibroblasts transformed with SV40 large T antigen; assay: Proliferation of SV40 transformed mouse embryonic fibroblasts; type: cell-based; details: 10 μM
Protocol: Two compounds, 24 referred to herein as SR-4 and 27 referred to herein as SR-7, were examined in greater detail as to their effects on biological activity. The proliferation of MCF-7, MDA-MB-231 and SV40 transformed mouse embryonic fibroblasts was measured by a previously described colorimetric assay (Wipf P, Jung J-K, Rodriguez S, Lazo JS Synthesis and biological evaluation of Deoxypreussomerin A and Palmarumycin CP 1 and related naphthoquinone spiroketals. Tetrahedron 57:283-296, 2001 and Vogt A, Rice RL, Settineri CE, Yokokawa F, Yokokawa S, Wipf P and Lazo JS (1998) Disruption of insulin-like growth factor-I signaling and down-regulation of Cdc2 by SC-ααδ9, a novel small molecule antisignaling agent identified in a targeted array library. J Pharmacol Exptl Therap 287:806-813.). Briefly, the inventors seeded 4,000-6,000 cells per well in microtiter plates. Cells were allowed to attach overnight and treated with vehicle or compounds for 72 h, after which the medium was replaced with serum free medium containing 0.1% 3-[4,5-dimethylthiazol-2-yl]-2,5-diphenyl tetrazolium bromide. Plates were incubated for 3 hours in the dark and total cell number was determined by spectrophotometrically at 540 nm as previously described (Vogt A, Rice RL, Settineri CE, Yokokawa F, Yokokawa S, Wipf P and Lazo JS (1998) Disruption of insulin-like growth factor-1 signaling and down-regulation of Cdc2 by SC-ααδ9, a novel small molecule antisignaling agent identified in a targeted array library. J Pharmacol Exptl Therap 287:806-813.). […] Cells were maintained in RPMI 1640 medium containing 10% fetal bovine serum and the paclitaxel-resistant cells also contained 17 nM paclitaxel and 10 μM verapamil. […] The number of cells was determined spectrophotometrically at 490 nm minus absorbance at 630 nm after exposure to 3-(4,5-dimethylthiazol-2-yl)-5-(3-carboxymethoxyphenyl)-2-(4-sulfophenyl)-2H-tetrazolium and N-methyldibenzopyurazine methyl sulfate. […]

MDA-MB-231 cells = assay: Antiproliferative assay, MDA-MB-231 cells; type: cell-based, human
Text: MDA-MB-231 cells, which were also derived from an adenocarcinoma of the breast, are less differentiated than the MCF-7 cells and fail to express functional p53 or estrogen receptors. This class of tumor cells contains important targets for new therapies, because loss of estrogen receptor expression is associated with poor patient prognosis. (Osborne, C. K. Breast Cane. Res. Treatm. 1998, 51, 227).
The inventors extrapolated to determine the IC50 for compounds with little cytotoxicity at 30,μM, the highest concentration tested. […] The enhanced sensitivity of MCF-7 to these compounds may be due to the expression of p53 in these cells.
Two compounds, 24 referred to herein as SR-4 and 27 referred to herein as SR-7, were examined in greater detail as to their effects on biological activity. The proliferation of MCF-7, MDA-MB-231 and SV40 transformed mouse embryonic fibroblasts was measured by a previously described colorimetric assay (Wipf P, Jung J-K, Rodriguez S, Lazo JS Synthesis and biological evaluation of Deoxypreussomerin A and Palmarumycin CP 1 and related naphthoquinone spiroketals. Tetrahedron 57:283-296, 2001 and Vogt A, Rice RL, Settineri CE, Yokokawa F, Yokokawa S, Wipf P and Lazo JS (1998) Disruption of insulin-like growth factor-I signaling and down-regulation of Cdc2 by SC-ααδ9, a novel small molecule antisignaling agent identified in a targeted array library. J Pharmacol Exptl Therap 287:806-813.). Briefly, the inventors seeded 4,000-6,000 cells per well in microtiter plates. Cells were allowed to attach overnight and treated with vehicle or compounds for 72 h, after which the medium was replaced with serum free medium containing 0.1% 3-[4,5-dimethylthiazol-2-yl]-2,5-diphenyl tetrazolium bromide. Plates were incubated for 3 hours in the dark and total cell number was determined by spectrophotometrically at 540 nm as previously described (Vogt A, Rice RL, Settineri CE, Yokokawa F, Yokokawa S, Wipf P and Lazo JS (1998) Disruption of insulin-like growth factor-1 signaling and down-regulation of Cdc2 by SC-ααδ9, a novel small molecule antisignaling agent identified in a targeted array library. J Pharmacol Exptl Therap 287:806-813.). […] Cells were maintained in RPMI 1640 medium containing 10% fetal bovine serum and the paclitaxel-resistant cells also contained 17 nM paclitaxel and 10 μM verapamil. Cells were plated (2,000/well) in 96-well plates and allowed to attach and grow for 72 hours (paclitaxel and verapamil were removed from resistant cell medium two weeks prior to this plating). They were then treated with 0.5% DMSO vehicle control or 0.08-10 μM compound. The number of cells was determined spectrophotometrically at 490 nm minus absorbance at 630 nm after exposure to 3-(4,5-dimethylthiazol-2-yl)-5-(3-carboxymethoxyphenyl)-2-(4-sulfophenyl)-2H-tetrazolium and N-methyldibenzopyurazine methyl sulfate.
Because of the potential importance of the tumor suppressor gene p53 and the estrogen receptor in controlling the cellular response to cytotoxic agents, the inventors also examined the sensitivity of MDA-MB-231 cells, which lack functional p53 and estrogen receptors. […] As might be expected, these p53 and estrogen receptor deficient cells were generally less sensitive to both natural products and analogs when compared to MCF-7 cells.

PTPIB = target: T3, PTPIB (Homo sapiens, UniProt P18031); assay: In vitro inhibition of PTPIB; type: biochemical; details: 30 μM, data not shown
T3 sequence (P18031 1-435): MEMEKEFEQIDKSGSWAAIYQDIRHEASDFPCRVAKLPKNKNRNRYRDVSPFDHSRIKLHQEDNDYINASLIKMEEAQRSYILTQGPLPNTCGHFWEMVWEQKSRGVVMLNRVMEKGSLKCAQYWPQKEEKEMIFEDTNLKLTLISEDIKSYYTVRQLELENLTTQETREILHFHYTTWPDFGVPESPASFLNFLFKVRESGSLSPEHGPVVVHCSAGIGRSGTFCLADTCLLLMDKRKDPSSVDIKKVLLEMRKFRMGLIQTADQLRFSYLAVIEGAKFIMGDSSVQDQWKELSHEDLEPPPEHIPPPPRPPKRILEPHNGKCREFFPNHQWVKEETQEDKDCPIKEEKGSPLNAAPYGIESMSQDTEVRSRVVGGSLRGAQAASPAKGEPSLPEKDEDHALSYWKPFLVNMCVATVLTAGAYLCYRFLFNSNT

recombinant Cdc25 = assay: In vitro inhibition of recombinant Cdc25; type: biochemical; details: 30 μM, data not shown
VHR = VHR (Homo sapiens, UniProt P51452); assay: In vitro inhibition of VHR; type: biochemical; details: 30 μM, data not shown
Sequence of VHR (P51452 whole entry, species assumed): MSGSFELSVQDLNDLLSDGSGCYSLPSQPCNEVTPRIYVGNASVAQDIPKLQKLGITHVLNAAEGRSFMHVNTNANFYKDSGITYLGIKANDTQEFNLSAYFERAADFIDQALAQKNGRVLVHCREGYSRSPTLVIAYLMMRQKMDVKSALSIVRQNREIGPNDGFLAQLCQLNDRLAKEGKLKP

In the case of `C[C@H]1CO[C@H]2C3=C(C(=O)C=CC3=O)[C@@H]3OC(=O)[C@H]4CC[C@@H]5[C@H]1CC[C@@]52[C@@H]43` [NSC401005], the GI50 (60 cell line panel) is listed as 21.5 µM and the IC50 (Trx-1/TrxR [1]) is listed as 0.17 µM.

For `O=C1C=CC(=O)[C@@]23O[C@@]12C(=O)C(Cl)=CC31Oc2cccc3cccc(c23)O1` [palmarumycin C4], the “germination and growth of garden cress” value (garden cress) is given as “completely inhibited germination and growth”.

For `CC(=O)OC[C@H]1O[C@@H]([S-])[C@H](OC(C)=O)[C@@H](OC(C)=O)[C@@H]1OC(C)=O.CCP(CC)CC.[Au+]` [auranofin], the Ki [2] is listed as 0.004 µM.

In the case of `O=C1C=CC(=O)C23OC12C(=O)C1OC1C31Oc2cccc3cccc(c23)O1` (stereo not shown) [palmarumycin C9], the “germination and growth of garden cress” value (garden cress) is listed as “completely inhibited germination and growth”.

For `CC/C=C/CCOc1cccc2c1C(=O)C=CC21Oc2cccc3cccc(c23)O1` [SR-4, (E)-8-(hex-3-enyloxy)-1-oxo-1,4-dihydronaphthalene-4-spiro-2′-naphto [1″,8″-de][1′,3′] dioxin], the IC50 (Trx-1/TrxR [3]) was greater than 50 µM, the “growth inhibition at highest concentration tested” value [4] was “no significant inhibition” and the “enhanced sensitivity of MDA-MB-231 cells compared to MCF-7 cells” value (MDA-MB-231 cells) was “five fold enhanced sensitivity”. The “sensitivity of MDA-MB-231 cells, in words” value (MDA-MB-231 cells; 72 hours, FIG. 23 Panel B) was “less active”, the IC50 (MDA-MB-231 cells; Homo sapiens, MDA-MB-231, 72 hours, read-out: MDA-MB-231 50% cell growth inhibition) was 9.2 µM and the “inhibition of PTPIB activity” value (PTPIB) was “no inhibition”. For the same compound, the “inhibition of recombinant Cdc25 activity” value (recombinant Cdc25) was “no inhibition” and the “inhibition of VHR activity” value (VHR) was “no inhibition”.
